1 compound from article PMC12147034, “Identification of alkynyl nicotinamide HSN748 as a RET solvent-front mutant inhibitor with intracranial efficacy” (RSC Medicinal Chemistry, 2025) can be followed below.

SMILES strings stand for the structures. Like-named read-outs stand apart in the source and are kept apart here.

The nature of the series: In vivo pharmacokinetics and brain distribution in mice. Conditions: for Kp: CD1, mouse, brain and plasma, iv, 2 mg/kg. On the procedure:
For compound HSND19, male SD rats received an intravenous (IV) dose of 2 mg kg^−1 and an oral (PO) dose of 10 mg kg^−1. Both formulations were prepared in 10% DMSO/90% (20% HP-β-CD in water, w/w). Blood samples were collected at 0.25, 0.5, 1, 2, 4, 8, and 24 hours post-dosing. For compound HSN748, male SD rats received oral doses of 20, 50, and 100 mg kg^−1 in a solution of 0.5% methylcellulose (4000 cp)/0.1 M citrate buffer (pH 4.5). Blood samples were collected at 0.25, 0.5, 1, 2, 4, 6, 8, and 24 hours post-dosing. For IV administration, male CD1 mice received 2 mg kg^−1 prepared with 5% DMSO/5% Tween80/40% PEG400/50% PBS, with sampling at 0.083, 0.25, 0.5, 1, 2, 4, 8, and 24 hours.
In oral PK studies, blood samples were collected at each time point, with a total of 3 animals per study. In IV studies, animals were euthanized after blood collection at each time point to collect brain tissue, using a total of 21 animals per study. Whole blood samples were collected in heparinized tubes and centrifuged to separate plasma. Brain samples were rinsed, weighed, and immediately frozen in liquid nitrogen, and stored at −80 °C until analysis. The PK studies were conducted by Pharmaron (Beijing, China). Animal procedures were performed in accordance with the Guidelines for Care and Use of Laboratory Animals of Pharmaron (Beijing, China) and approved by the Animal Ethics Committee of Pharmaron (Beijing, China).
The mean concentration-time profiles were analyzed using Phoenix WinNonlin (version 8.4; Certara USA, Inc., Princeton, NJ) to calculate standard PK parameters, including the area under the curve from zero to infinity (AUC), bioavailability (F), clearance, volume of distribution, and half-life (t1/2).

Setting [1] is: male, CD1, plasma, Mouse, IV, 2 mg kg^-1.

Turning to `CN1CCN(Cc2ccc(NC(=O)c3cncc(C#Cc4cnc5cccnn45)c3)cc2C(F)(F)F)CC1` [HSN748], under “Mouse, IV, 2 mg kg^-1”, the AUCBrain was determined as 377 ng·h/mL; the “brain-to-plasma partition coefficient (Kp), AUCbrain/AUCPlasma” value is 0.42; the peak brain concentrations entry is reported as “exceeding 198 ng ml^-1”. Also, under “male, 2 mg kg^-1, read-out: brain exposure as % of total plasma exposure (AUCplasma)”, the Kp is roughly 0.42. For the same compound, the Kp (male, 2 mg kg^-1, read-out: brain-to-plasma partition coefficient (Kp), AUCbrain/AUCPlasma) was 0.4. Moreover, under setting [1], the Cmax – broadly, the peak of the concentration-time curve – is 513 ng/mL; the Tmax (commonly the time at which the peak concentration occurs) came out at 15 min; the clearance (usually the rate of elimination divided by the concentration) is 36.7 mL/min/kg; the half-life (in general, how long it takes for the measured level to halve) is 78 min. Moreover, the AUC (male, CD1, plasma, Mouse, IV, 2 mg kg^-1, read-out: AUCPlasma) came out at 907 ng·h/mL. Further, the Vd (male, CD1, plasma, Mouse, IV, 2 mg kg^-1, read-out: Vss) came to 3.9 L/kg.
